Results reported in patent US20250250308A1, “METHODS AND COMPOSITIONS WITH ANTIFUNGAL ACTIVITY” (priority 2022, published 2025).
Several values for one entry are separate records, joined by “and”; a condition that tells them apart may be missing. Identical values can stand only once. Entries after “also recorded” stand apart in the source; their conditions may differ. Square brackets hold non-standard residues; d marks the D form. Peptide text beside a SMILES is read from it.

Experiments:
C. albicans [1] = assay: Killing of C. elegans by C. albicans (survival of infected nematodes); type: in vivo; settings: for Median survival: C. albicans infected C. elegans exposed to 1 nM peptide, one value per trial; for Protection of C. elegans from C. albicans infection (survival): 1 nM peptide
Protocol: The α7 helix is sufficient to protect C. elegans and inhibit surface adhesion. Based on this structural characterization, fragments of EntV were examined to identify those structural moieties that retained antifungal activity. Synthetic peptides were generated of each of the four alpha helices (plus two flanking amino acids) from the active C-terminus of EntV—α4, α5, α6 and α7 (FIG. 1A) as well as an α4-α6 construct. The peptides were tested for their ability to protect C. elegans against C. albicans infection as established in previous work (Cruz et al., 2013; Graham et al., 2017).
Killing of C. elegans by C. albicans. The methodology used for the C. elegans infection assays was performed, with a few modifications, as described ((Breger et al., 2007; Cruz et al., 2013; Graham et al., 2017; Peleg et al., 2008)). Briefly, C. elegans glp-4(bn2); sek-1(km-4) (Breger et al., 2007) nematodes were propagated and maintained on E. coli strain OP50(Brenner, 1974) that was seeded onto nematode growth medium (NGM) agar using standard techniques (Hope, 1999). To synchronize the animals, L1 stage worms on non-starved plates were washed off, filtered through a 10 μm filter (pluriSelect, pluriStrainer 10 μm), harvested by centrifugation, transferred to OP50 seeded plates, and grown to the L4 stage. To prepare the infection plates, C. albicans strain […] (Gillum et al., 1984) was grown in YPD broth for 24 h at 37° C. with agitation. 500 μl of the culture was plated onto BHI solid medium containing gentamycin (10 μg/ml) and grown for 24 h at 37° C. The synchronized, L4 C. elegans were washed off the OP50 plates in 2 ml sterile M9 buffer and washed once, centrifuging at 750×g for 30 seconds to collect animals. Animals were infected by placing them on the SC5314 lawn for 4 h at 25° C. Following this exposure, they were washed off the plate and washed four times with 2 ml of sterile M9. The nematodes were then pipetted (˜30 per well with 2 wells per condition for a total of ˜60 worms assayed) into six-well plates with 2 ml of liquid medium (20% BHI broth and 80% M9) containing the indicated concentrations of test compounds. Plates were incubated at 25° C., and worm death was scored daily. Kaplan-Meier survival curves were generated and analyzed as described in the quantification and statistical analysis section.

C. albicans [2] = assay: Mouse OPC (oropharyngeal candidiasis) model; type: in vivo; settings: 100 nM in drinking water for 5 days following inoculation
Protocol: Mouse OPC model. The efficacy of EntV fragments were tested in the OPC model as described (Graham et al., 2017; Solis and Filler, 2012). Mice were immunosuppressed by injecting 225 mg/kg cortisone acetate subcutaneously 1 d before inoculation, and subsequently on days 1 and 3 of the infection. Group size was 6-8. To prepare the inoculum, 1 ml of C. albicans (SC5314) overnight culture grown at 30° C. in YPD broth was washed twice in PBS before resuspension in sterile Hanks' balanced salt solution (HBSS) at a concentration of 1×10^6 cells/mL. Calcium alginate swabs were soaked in this inoculum for 5 minutes prior to inoculation. Mice were anesthetized using ketamine and xylazine and placed on pre-warmed isothermal pads and the swabs were placed sublingually for 75 min. Mice were given additional doses of ketamine (50 mg/kg), as necessary. After inoculation, mice were given drinking water with EntV fragments or DMSO (0.01%) in the drinking water ad libitum. Mice were euthanized at 5 d after inoculation, unless noted. The tongues were excised and cut in half laterally for tissue histology and assessment of fungal burden.
For tissue histology the tongue sample was placed in 10% zinc-buffered formalin overnight and stored in 80% ethanol, before embedding in paraffin. For each tongue, 5 μm sections were prepared using a Leica microtome and stained using Periodic Acid-Schiff (PAS) stain. Epithelial invasion was measured from 40× images taken of the entire tissue section of each tongue half with the total area of epithelium and infected epithelium were measured using ImageJ (version 1.6). Measurements were totaled and expressed as a percentage of total infected epithelium relative to the entire epithelial area (Graham et al., 2017; Moyes et al., 2016).
For examination of fungal burden, qPCR was used by amplifying a 269-bp fragment of the internal transcribed spacer 2 (ITS2) between the 5.8S and 28S ribosomal RNA genes of C. albicans (Graham et al., 2017; Khot et al., 2009). DNA was extracted from homogenized tongue tissue using the Yeast DNA Extraction Kit (Thermo Scientific) according to the protocol with minor modifications. The ITS2 fragment was amplified by qPCR was performed with a CFX96 Real-Time System with a C1000 Touch thermal cycler (BioRad). C. albicans gDNA was quantified using FastStart Universal SYBR Green master mix with ROX (Roche). To screen for contamination and background fluorescence during the qPCR amplification, no template controls were used.

Cryptococcus neoformans = assay: High-throughput Sytox Orange C. elegans infection assay, C. neoformans; type: in vivo; settings: five days of infection; vs. DMSO control
Protocol: FIGS. 15A-15D: Secondary testing of gain-of-function variants from screen. (FIG. 15A) Survival over time of C. elegans infected with C. albicans and exposed to 1 nM of the indicated peptides. Statistical differences in survival were compared to animals in the exposure condition on the right of the legend (12aa-WT) by Mantel-Cox log rank analysis. An n of 30 animals was used and one representative trial is shown. (FIG. 15B) Percent survival as measured by the high-throughput Sytox Orange assay following five days of infection with C. albicans is shown. Means were calculated with the error bars representing the SEM. Statistical differences in survival were compared to animals in the untreated condition (DMSO) by one-way ANOVA followed by Dunnett's multiple comparison test. An n of 30 animals was used per experimental group. (FIG. 15C) Adhesion of C. albicans to tissue-culture treated plates following incubation with 10 nM of the indicated peptides is shown. […] Means were calculated with the error bars representing the SEM. Statistical significance in comparison to the DMSO control group was determined using one-way ANOVA followed by Tukey's multiple comparison test. […] (FIG. 15D) Percent survival as measured by the high-throughput Sytox Orange assay following five days of infection with C. neoformans is shown. Means were calculated with the error bars representing the SEM. […]

C. albicans [3] = assay: High-throughput Sytox Orange C. elegans infection assay, C. albicans; type: in vivo; settings: five days of infection; vs. DMSO control
Protocol: FIGS. 15A-15D: Secondary testing of gain-of-function variants from screen. (FIG. 15A) Survival over time of C. elegans infected with C. albicans and exposed to 1 nM of the indicated peptides. Statistical differences in survival were compared to animals in the exposure condition on the right of the legend (12aa-WT) by Mantel-Cox log rank analysis. An n of 30 animals was used and one representative trial is shown. (FIG. 15B) Percent survival as measured by the high-throughput Sytox Orange assay following five days of infection with C. albicans is shown. Means were calculated with the error bars representing the SEM. Statistical differences in survival were compared to animals in the untreated condition (DMSO) by one-way ANOVA followed by Dunnett's multiple comparison test. An n of 30 animals was used per experimental group. (FIG. 15C) Adhesion of C. albicans to tissue-culture treated plates following incubation with 10 nM of the indicated peptides is shown. A non-adherent strain (Δefg1/Δcph1) was used as a control. Means were calculated with the error bars representing the SEM. Statistical significance in comparison to the DMSO control group was determined using one-way ANOVA followed by Tukey's multiple comparison test. An n of three biological replicates, each with four technical replicates, was used. (FIG. 15D) Percent survival as measured by the high-throughput Sytox Orange assay following five days of infection with C. neoformans is shown. Means were calculated with the error bars representing the SEM. Statistical differences in survival were compared to animals in the untreated condition (DMSO) by one-way ANOVA followed by Dunnett's multiple comparison test. An n of 30 animals was used per experimental group.
High-throughput screening of this library was performed by employing established assays to assess antifungal agent efficacy. […] By using these assays in concert, each individual peptide was assessed using two approaches that probe different aspects of C. albicans virulence.

C. auris = assay: Survival of C. elegans infected with C. auris; type: in vivo; settings: 1 nM peptide
Protocol: FIGS. 6A-6D: EntV peptides have activity against many fungal species and strains. Survival over time of C. elegans infected with C. auris, (FIG. 6A), C. neoformans, (FIG. 6B), and C. albicans, (FIG. 6C), paired clinical isolates before (AzS: fluconazole-susceptability) and after gaining fluconazole resistance (AzR), (FIG. 6D). Peptides were added at 1 nM and fluconazole at 4 ug/ml. Statistical differences in survival were compared to animals to the DMSO vehicle control by Mantel-Cox log rank analysis. An n of 60 was used and one representative trial is shown. Exact p values from top to bottom: (FIG. 6A) <0.0001, <0.0001, (FIG. 6B) <0.0001, <0.0001, (FIG. 6C) 0.0013, 0.0004, 0.0035, (FIG. 6D) 0.0050, 0.0040, 0.5539.
EntV peptides have activity against other fungal species and strains. […] Paired clinical isolates of C. albicans, in which fluconazole-resistance had been gained following in-patient evolution were tested and it was determined that animals infected with both the original strain as well as the fluconazole-resistant descendent were protected by EntV ([…]).
Killing of C. elegans by C. albicans. […] Plates were incubated at 25° C., and worm death was scored daily. Kaplan-Meier survival curves were generated and analyzed as described in the quantification and statistical analysis section.

[4] = Peptide serum stability assay; type: in vitro ADME; settings: 10% human serum, 37° C., HPLC; read-out: Peptide remaining after 24 hours in human serum
Protocol: Peptide serum stability assay. One mL of RPMI supplemented with 10% (v/v) of human serum (type AB) were aliquoted and temperature-equilibrated at 37° C. for 15 min before adding a concentrated stock peptide solution resulting in a final peptide concentration of 100 μM. For each time point, 100 μL of the reaction solution was removed and added to 200 μL 96% ethanol for precipitation of serum proteins. The sample was cooled (4° C.) for 15 min and then spun at 18,000 g for 2 min to pellet the precipitated serum proteins. The reaction supernatant was analyzed using HPLC with absorbance detected at 280 nm. The peptide peak was detected first without serum treatment to assess the area under the curve for the peptide of interest. At each time point the area under the curve was calculated by HPLC and then divided by the untreated peptide area under the curve to determine the percent remaining.

Compound	Median survival (C. albicans [1])	Fungal burden in the tongue (C. albicans DNA by qPCR) (C. albicans [2])	Hyphal (epithelial) invasion of the tongue (C. albicans [2])	Protection of C. elegans from C. albicans infection (survival) (C. albicans [1])	Survival of C. elegans by Sytox Orange assay, C. albicans (C. albicans [3])	also measured
GQLALWAVQC [10aa]	8 days and 9 days	reduced fungal burden in the OPC model, but not to the same degree as the 12-mer	some reduction	–	–	Survival of C. elegans by Sytox Orange assay, C. neoformans (Cryptococcus neoformans): not effective
TNVGALWICGLAVIQAAQLS [α7 - random]	7 days	–	–	–	–	–
VVLALWAVQC [P1]	–	significantly reduced	significantly reduced	as effective in protecting the animals as the original 12aa peptide	statistically significant antifungal activity	–
VLLALWALVC [P5]	–	–	–	as effective in protecting the animals as the original 12aa peptide	–	–
TNAIIVAGQLALWAVQCG [α7]	10.5 days and 12 days and 11 days and 10 days and 13 days and 14 days	–	–	protected C. elegans from C. albicans infection as well or better than full-length, active EntV^68	–	Survival of C. elegans infected with C. auris (C. auris): protected animals from death
LVLAFWAVVC [P3]	–	–	–	as effective in protecting the animals as the original 12aa peptide	statistically significant antifungal activity	–
TNAAAAQQGGIICLLVVWLS [α7 - disrupt]	6 days	–	–	–	–	–
CC(C)C[C@@H](NC(=O)[C@@H](C)NC(=O)[C@@H](CC(C)C)NC(=O)[C@@H](CCC(N)=O)NC(=O)CNC(=O)[C@@H](C)NC(=O)[C@H](N)C(C)C)C(=O)N[C@H](Cc1c[nH]c2ccccc12)C(=O)N[C@H](C)C(=O)N[C@@H](C(=O)N[C@H](CCC(N)=O)C(=O)N[C@H](CS)C(N)=O)C(C)C [12aa D-form peptide] (H-[dV][dA]G[dQ][dL][dA][dL][dW][dA][dV][dQ][dC]-NH2)	–	–	–	remained as effective as the original in protecting C. elegans against infection with C. albicans	–	remaining at 24 h, 100 μM [4]: ~35%
VQLALWAVQC [P4]	–	significantly reduced; also recorded: more effective than P1 in reducing fungal burden	significantly reduced	as effective in protecting the animals as the original 12aa peptide	statistically significant antifungal activity	–
AGQLALWAVQC [11aa]	9 days and 10 days	reduced fungal burden in the OPC model, but not to the same degree as the 12-mer	some reduction	–	–	–
